Source: US20230097883A1, “ERGOTHIONEINE PET COMPOUNDS AND METHODS OF USE THEREOF” (VANDERBILT UNIVERSITY, priority 2021, published 2023)

Assays:
oxidative stress = test: Dynamic microPET uptake and retention of [11C]ERGO in brains of 5XFAD versus WT mice; type: in vivo, mouse; settings: 10-month-old, n=4, 14.8 MBq in 0.1 mL via tail vein
Method: Dynamic uptake and retention of [^11C]ERGO radioligand. Two cohorts of age-matched mice (10-month-old, n=4, each), including 5XFAD and WT animals, were injected with a consistent amount of 14.8 MBq of [^11C]ERGO in 0.1 mL via the tail vein prior to acquiring dynamic imaging. […] In this work, we decided to run 20-min dynamic scans to test, as a proof-of-concept, whether the affinity of ERGO for radicals and/or metals, which are integrated in or very closely associated with Abeta aggregates, would trap the probe. […] The mean percent of ID/g in the brains of 5XFAD mice (n=4) were 0.81±0.09, 0.72±0.09, 0.72±0.10, 0.71±0.12, 0.72±0.08, 0.83±0.10 for cortex, hippocampus, striatum, thalamus, cerebellum and whole brain, respectively, whereas for WT mice (n=4), the values were 0.52±0.13, 0.47±0.18, 0.47±0.15, 0.42±0.18, 0.51±0.13, 0.55±0.14. […] 5XFAD brains are associated with high levels of GFAP and IBA1 expression. After PET/CT imaging, animals underwent through the cardiac perfusion process, and the brains were embedded in OCT solution for micro-sectioning. […] The hippocampal regions of 5XFAD mice, including the dentate gyrus (DG), Cornu ammonis (CA) and the surrounding regions are populated with astrocytes, which were detected and quantified by immunostaining using anti-GFAP antibody. […] Quantitatively, about 2-fold higher levels of this inflammatory marker is found in 5XFAD versus control mice (*p<0.05). In a similar observation, 5XFAD mouse brains have greater numbers of IBA1-positive activated microglia (arrows) compared to WT counterparts.
Dynamic PET imaging. The dynamic acquisition was divided into twelve 5 sec frames, four 60 sec frames, five 120 sec frames, three 5 min frames, and six 10 min scans. The data from all possible lines of response (LOR) were saved in the list mode raw data format. The raw data were then binned into 3D sinograms with a span of 3 and ring difference of 47. The images were reconstructed into transaxial slices (128×128×159) with voxel sizes of 0.0815×0.0815×0.0796 cm^3, using the MAP algorithm with 16 subsets, 4 iterations, and a beta of 0.0468. For anatomical co-registration, immediately following the PET scans, the mice received a CT scan in a NanoSPECT/CT (Mediso, Wash. D.C.) at an X-ray beam intensity of 90 mAs and x-ray peak voltage of 45 kVp. The CT images were reconstructed into 170×170×186 voxels at a voxel size of 0.4×0.4×0.4 mm^3. The PET/CT images were uploaded into Amide software (www.sourceforge.com), co-registered to an MRI template made in-house, and volumetric regions-of-interest were drawn around the cortex, hippocampus, striatum, thalamus, and cerebellum in addition to the whole brain. The PET images were normalized to the injected dose, and the time-activity-curves (TACs) of the mean activity within the ROIs were estimated for the entire duration of the scans.

IBA1-positive microglia = test: IBA1 immunohistochemistry of brain sections after ERGO treatment; type: in vivo, mouse; settings: ERGO-treated versus non-treated 5XFAD mice
Method: In this study, after the PET imaging, animals (non-treated 5XFAD (n=3) and ERGO-treated 5XFAD mice (n=5)) were perfused, and the brain sections were stained with antibodies against GFAP and IBA1 for neuroinflammatory markers astrocytes and microglia, respectively.
Quantitative analysis of the PET imaging and IHC data was performed using imageJ software. The data was imported to GraphPad Prism version 9 for Mac (GraphPad Software, San Diego, Calif., USA) for statistical analysis. Differences between groups were tested using unpaired t-test.

C[N+](C)([11CH3])[C@@H](Cc1c[nH]c(=S)[nH]1)C(=O)[O-] [[^11C]ERGO]
mean percent of ID/g, cerebellum (oxidative stress; 5XFAD mice): 0.72±0.08% of ID/g | mean percent of ID/g, cortex (oxidative stress; 5XFAD mice): 0.81±0.09% of ID/g | mean percent of ID/g, hippocampus (oxidative stress; 5XFAD mice): 0.72±0.09% of ID/g | mean percent of ID/g, striatum (oxidative stress; 5XFAD mice): 0.72±0.10% of ID/g | mean percent of ID/g, thalamus (oxidative stress; 5XFAD mice): 0.71±0.12% of ID/g | mean percent of ID/g, whole brain (oxidative stress; 5XFAD mice): 0.83±0.10% of ID/g | mean percent of ID/g, cerebellum (oxidative stress; WT mice): 0.51±0.13% of ID/g | mean percent of ID/g, cortex (oxidative stress; WT mice): 0.52±0.13% of ID/g | mean percent of ID/g, hippocampus (oxidative stress; WT mice): 0.47±0.18% of ID/g | mean percent of ID/g, striatum (oxidative stress; WT mice): 0.47±0.15% of ID/g | mean percent of ID/g, thalamus (oxidative stress; WT mice): 0.42±0.18% of ID/g | mean percent of ID/g, whole brain (oxidative stress; WT mice): 0.55±0.14% of ID/g

C[N+](C)(C)[C@@H](Cc1c[nH]c(=S)[nH]1)C(=O)[O-] [ERGO, L-ergothioneine]
reduction of IBA1-positive microglia (IBA1-positive microglia): ~80%
